The values that follow are results of earlier work, collected in US20240216406A1, “METHODS AND COMPOSITIONS FOR SUPPORTING HUMAN HEALTH DURING SPACE TRAVEL” (Intrinsic Medicine, Inc., priority 2021, published 2024).

Read-outs that look alike come from different tables or passages of the source.

The subject of one data set is local gut inflammation. To be noted: models of necrotizing enterocolitis and other inflammatory bowel diseases.
The test system of the next data set is E. Coli. To be noted: in the presence of the HMO.
The next data set relates to p65. To be noted: murine rheumatoid arthritis model.
Data set [1] concerns murine and human derived macrophages. To be noted: in vitro.
The test system of data set [2] is PDL1, COX2, CCL2 (MCP1), CCL5.
The subject of data set [3] is mouse models of rheumatoid arthritis. To be noted: administered orally; mouse rheumatoid arthritis models with LPS challenge.

As for `CC1O[C@@H](OC2[C@H](O[C@@H]3C(CO)OC(O)C(O)C3O)OC(CO)[C@H](O)[C@@H]2O)C(O)[C@@H](O)[C@@H]1O` (some centres unmarked) [2′FL, 2′-fucosyllactose], in the data set with local gut inflammation, the local gut inflammation result is recorded as “reduction of local gut inflammation”. Moreover, the “gut epithelial barrier function” value with gut epithelial barrier is listed as “positive effects on gut epithelial barrier function”. The “TNFα and IL-8” value in the data set with TNFα and IL-8 was “reduction in TNFα and IL-8”. In addition, the “E. Coli adhesion to Caco-2 cells” value in the data set on E. Coli is given as “reduction of E. Coli adhesion”.

With `CC(=O)N[C@H]1C([C@H](O)[C@H](O)CO)O[C@@](O[C@@H]2C(O)[C@H](O[C@@H]3C(CO)O[C@@H](O)C(O)[C@H]3O)OC(CO)[C@@H]2O)(C(=O)O)C[C@H]1O` (some centres unmarked) [3′SL, 3′-sialyllactose], in the data set with p65, the “phosphorylation of p65 (NF-kB signaling pathway)” value is recorded as “inhibited phosphorylation of p65”. In addition, the “IL-1β, IL-2, IL-4, IL-6, IL-12, IFN γ or TNF-α” value is “reductions” in data set [1] and “more significant reductions” in data set [1] (listed as 3′-SL). In data set [2], the “PDL1, COX2 and select chemokines such as CCL2 (MCP1) and CCL5” value is given as “reduce other key target proteins”.

On to `CC(=O)N[C@H]1C([C@H](O)[C@H](O)CO)O[C@@](OCC2O[C@@H](O[C@@H]3C(CO)O[C@@H](O)C(O)[C@H]3O)C(O)[C@@H](O)[C@H]2O)(C(=O)O)C[C@H]1O` (some centres unmarked) [6′SL, 6′-sialyllactose], for which the “IL-1β, IL-2, IL-4, IL-6, IL-12, IFN γ or TNF-α” value in data set [1] was “reductions”. Besides, the “E. Coli adhesion to Caco-2 cells” value in the data set on E. Coli is on record as “reduction of E. Coli adhesion”.

As to sialyllactose, in data set [3], the “clinical assessments of disease” value was “benefit in clinical assessments of disease”.
